Assay results as given in paper PMC9719539, “Single-molecule characterization of subtype-specific β1 integrin mechanics” (Nature Communications, 2022).

What was measured:
integrin αVβ3 = target: T1, integrin αVβ3 (Homo sapiens, UniProt P05106+P06756); assay: Competition with cRGDfK-TF5WS binding to αVβ3 on K562 transfectants
T1 construct: expressed in transfected cells
Excerpt: (§1) Source data are provided as a Source Data file. […]
(§2) Source data are provided as a Source Data file.
(§3) (1 picture or pasted object on this page, not shown here)

integrin αVβ5 = target: T2, integrin αVβ5 (Homo sapiens, UniProt P06756+P18084); assay: Competition with cRGDfK-TF5WS binding to αVβ5 on K562 transfectants
T2 construct: expressed in transfected cells
Excerpt: as §1, §2, §3

BJ-5ta cells [1] = assay: Cytoskeletal inhibitor effects on TGT rupture and spreading; assay type: cell-based, human; conditions: for TGT rupture with inhibitor (in words), all substrates / cell spreading with inhibitor (in words): 1 h; for TGT rupture with inhibitor (in words), all substrates: inhibitors 5 min preincubation; for cell spreading with inhibitor (in words): RGD- and LDVP-TGT
Excerpt: (21 pictures or pasted objects on this page, not shown here)

[2] = tested on: extended-open β1 integrin on BJ-5ta cells; assay: β1 integrin activation: number and density of bound AF647-12G10 Fab on biotin-PEG-cholesterol immobilized cells; assay type: cell-based, human
BJ-5ta cells [3] = assay: Actin retrograde flow rate (kymographs, SiR-actin); assay type: cell-based, human; conditions: 64, 71 loci from 15, 13 cells
Experimental: BJ-5ta cells were seeded on RGD-54pN or LDVP-54pN surfaces for 40 min and 20 nM SiR-actin and 10 µM verapamil (Cytoskeleton, CY-SC001) were added 20 min before imaging. Time-lapse TIRF imaging (640 nm) was done with 2–5 s interval for more than 60 frames. Kymographs were generated with ImageJ and the linear fit analysis was done with MATLAB scripts.

BJ-5ta cells [4] = assay: Percentage of spread cells / cell spreading on TGT surfaces; assay type: cell-based, human; conditions: for tension threshold for cell spreading: nominal Ttol
Experimental: Glass coverslips were densely PEGylated to minimize non-specific interactions such as the binding of cell-secreted extracellular matrix proteins. Coverslips cleaned by piranha etching solution (a 3:1 mixture of sulfuric acid and hydrogen peroxide) were incubated in silanization solution (UCT, 1760-24-3; 2% aminosilane and 5% acetic acid in methanol) for 30 min and reacted with a mixture of Polyethylene glycol (PEG) with and without biotin (1:19, 150 mg/ml; Laysan Bio, Biotin-PEG-SVA-5000 and MPEG-SVA-5000) for 4 h. Surfaces were washed thoroughly and dried using nitrogen gas after each step. A 3D-printed dish (PLA) or a silicon gasket (Grace Bio Labs, 103280) was attached to the coverslip to form a dish. Neutravidin (Thermo Fisher scientific, 31000; 0.4 mg/ml) was added to the dish for 10 min and washed out thoroughly. The dish was emptied and a droplet (3 µL) of TGT solution (100 nM unless specified otherwise) was placed on the coverslip for 10 min in a humid condition to locally immobilize TGT. For the lateral drift correction for time-resolved TGT rupture analysis, biotin-coated gold nanoparticles (Luna Nanotech, GNP-BIOT-100-2-04; 100 nm) were sparsely immobilized as fiducial markers. For protein ligand coating, protein (50 ug/ml in PBS) was incubated in glass bottomed imaging dishes for 1 h at RT without additional passivation.
The cells were gently harvested by washing in PBS for 1 min, incubating with 0.05% trypsin for 3 min, and then neutralizing with cell culture medium (FBS 10%). The cells were spun down and resuspended with Leibovitz’s L-15 Medium (Gibco, 21083027) supplemented with 2 g/L glucose, then seeded on the TGT surface at an approximate density of 30 cells/mm^2. For integrin inhibition experiments, cells were incubated with Fab for 5 min before seeding. For cell immobilization experiments, cells were incubated with 1 nM Cholesterol-PEG-Biotin (Nanosoft Polymers, 3084-2000) for 5 min, followed by washes by centrifugation to remove biotin in solution before seeding. The imaging area was humidified and the temperature was maintained at 37 °C. A Nikon Eclipse Ti microscope equipped with Xenon arc lamp, Nikon perfect focus system, custom total internal reflection fluorescence microscopy (TIRFM) module, and custom reflection interference contrast microscopy (RICM) module was driven by Elements software. Dark regions in RICM show where cells have closely adhered to the surface (≪300 nm gap). Nikon 10X objective (CFI60 Plan Fluor) and 60X objective (CFI60 Apochromat TIRF) with DIC filter sets were used. […] Images were recorded using an electron-multiplying charge-coupled device (EMCCD; Andor iXon 888).
Single-cell data were obtained from multiple independent sample preparations for each condition as specified. Percentage of spread cells was obtained from three independent experiments. Statistical analyses were performed using MATLAB software. Two-sided (two sample) t-test was used for two group comparisons. Each group was compared with the control group unless specified otherwise. Representative micrographs are selected from at least two independent experiments.

BJ-5ta cells [5] = assay: Traction force microscopy on ligand-coated polyacrylamide gels; assay type: cell-based, human
Experimental: Polyacrylamide gels (0.69 and 4.07 kPa shear modulus, 40 μm thickness) were prepared on glass coverslips with embedded 40 nm fluorescent beads (Thermo Scientific, TransFluoSpheres 633/720) and the surfaces were coated with neutravidin as described. […] Cells were seeded on the gels for 1 h. The bead images were taken before and after cell removal with the addition of 0.1% SDS. Bead displacements were determined using particle image velocimetry, and the corresponding contractile energy was estimated with Fourier transform traction cytometry, using ImageJ plugins. The cell area was determined by manually drawing an ROI in the DIC channel. Imaging was performed on Nikon Eclipse Ti2 microscopes equipped with Perfect Focus, CSU-W1 spinning disk, and Hamamatsu Orca-flash 4.0 v3 camera. Illumination was provided by optical fiber (Oz Optics) coupled solid-state lasers: 561 nm (200 mW) for Cy3 and, 655 nm (100 mW) for fluorescent beads from Spectral Applied Research.

integrin α4β1 (EO state) = conditions: extended-open conformation; read-out: affinity for EO state of α4β1; cited from earlier work
BJ-5ta cells [6] = assay: BJ-5ta spreading on ACRGD-TGT with or without integrin blocking Fabs (area, aspect ratio); assay type: cell-based, human
Experimental: Fig. 9 Integrin α5β1 mediated cell spreading. a Affinity of ACRGD for integrins on intact cells. Titration curves are shown in Supplementary Fig. 13. b–d Behavior of BJ-5ta on ACRGD-54pN (BHQ2-Cy3) surfaces after 1 h in presence of integrin blocking Fabs described in Fig. 6 legend. b Close-contact enclosed area from RICM images (n = 43, 38, 47, 96, 50 cells). c Aspect ratio of contact area (n = 56, 49, 38 cells, >500 μm^2). d Ruptured TGT counts (n = 44, 40, 48, 96 cells). e–g Cell spreading on ACRGD-TGT of different Ttol in presence of integrin blocking Fabs. e Representative images of cells with RICM (top row) and same cells with DIC or Cy3 fluorescence to show TGT rupture (bottom row). Dim RICM rings (~20 μm diameter) with 12, 23 and 33 pN TGT are the shadows of the spherical cell body, not the close contacts. […]
The cells were gently harvested by washing in PBS for 1 min, incubating with 0.05% trypsin for 3 min, and then neutralizing with cell culture medium (FBS 10%). […] A Nikon Eclipse Ti microscope equipped with Xenon arc lamp, Nikon perfect focus system, custom total internal reflection fluorescence microscopy (TIRFM) module, and custom reflection interference contrast microscopy (RICM) module was driven by Elements software. […] Images were recorded using an electron-multiplying charge-coupled device (EMCCD; Andor iXon 888).

## C[C@H](N)C(=O)N[C@H]1CSSC[C@@H](C(=O)NCC(=O)O)NC(=O)[C@H](Cc2c[nH]c3ccccc23)NC(=O)CNC(=O)[C@H](CC(=O)O)NC(=O)CNC(=O)[C@H](CCCNC(=N)N)NC1=O
Integrin αVβ3
  IC50: 765 ± 84 nM
Integrin αVβ3; Kd αVβ3, L15 + 1 mM Mn2+, 1% BSA, competition with 25 nM cRGDfK-TF5WS
  Kd: 170 ± 20 nM
Integrin αVβ3; Kd αVβ3, L15, 1% BSA, no Mn2+, competition with cRGDfK-TF5WS (25 nM for Fabs, 50 nM for ACRGDGWCG), Kd = EC50/(1+CL/Kd,L)
  Kd: 530 ± 60 nM
Integrin αVβ5; EC50 αVβ5, L15 + 1 mM Mn2+, competition with 25 nM cRGDfK-TF5WS
  EC50: 102 ± 7 nM
Integrin αVβ5; EC50 αVβ5, L15, no Mn2+, competition with 50 nM cRGDfK-TF5WS
  EC50: 367 ± 29 nM
Integrin αVβ5; Kd αVβ5, L15 + 1 mM Mn2+, 1% BSA, competition with 25 nM cRGDfK-TF5WS
  Kd: 50 ± 4 nM

## Cc1[nH]c2ccccc2c1CCNC(=O)c1ccccc1F [CK666]
BJ-5ta cells [1]
  TGT rupture with inhibitor (in words), all substrates: no significant effect

## C=C1[C@@H](C)[C@H]2[C@H](Cc3ccccc3)NC(=O)[C@]23[C@H](OC(C)=O)/C=C/[C@@](C)(O)C(=O)[C@@H](C)C/C=C/[C@H]3[C@@H]1O [Cytochalasin D]
BJ-5ta cells [1]
  TGT rupture with inhibitor (in words), all substrates: eliminated TGT rupture on all substrates
  cell spreading with inhibitor (in words): inhibited cell spreading

## O=S(=O)(c1cccc2c(I)cccc12)N1CCCNCC1 [ML-7]
BJ-5ta cells [1]; RGD-54pN
  rupture of RGD-54pN with inhibitor (in words): significantly suppressed
BJ-5ta cells [1]
  cell spreading with inhibitor (in words): did not disrupt cell spreading

## O=C1NC(=S)N(c2cccc(Br)c2)C(=O)/C1=C/c1ccco1 [SMIFH2]
BJ-5ta cells [1]
  TGT rupture with inhibitor (in words), all substrates: greatly diminished TGT rupture
  cell spreading with inhibitor (in words): greatly decreased spreading

## C[C@@H](N)[C@H]1CC[C@H](C(=O)Nc2ccncc2)CC1 [Y-27632]
BJ-5ta cells [1]; RGD-54pN
  rupture of RGD-54pN with inhibitor (in words): significantly suppressed
BJ-5ta cells [1]
  cell spreading with inhibitor (in words): did not disrupt cell spreading

## Cc1ccc2c(c1)C(=O)[C@]1(O)CCN(c3ccc(N)cc3)C1=N2 [para-amino-blebbistatin]
BJ-5ta cells [1]; LDVP-12pN, 50 uM, listed as para-amino-Blebbistatin
  rupture of LDVP-12pN with inhibitor (in words): no role
BJ-5ta cells [1]; LDVP-33pN
  share of rupture requiring myosin II (para-amino-Blebbistatin): about one third
BJ-5ta cells [1]; LDVP-33pN, 50 uM
  rupture of LDVP-33pN with inhibitor (in words): significantly reduced rupture events
BJ-5ta cells [1]; RGD-54pN
  rupture of RGD-54pN with inhibitor (in words): significantly suppressed
  share of rupture requiring myosin II (para-amino-Blebbistatin): half
BJ-5ta cells [1]
  cell spreading with inhibitor (in words): did not disrupt cell spreading

## MUPA-LDVPAAK [LDVP-TGT, tension gauge tether conjugated with MUPA-LDVPAAK]
[2]
  force needed for activation of β1 integrin to high affinity state: less than 12 pN
[2]; versus control, 30 min
  12G10 Fab density / activated β1 density (in words): significantly above the control and similar at all Ttol
BJ-5ta cells [3]
  retrograde actin flow: 24.8 nm/s
BJ-5ta cells [4]; 1 h
  tension threshold for cell spreading: < 12 pN
BJ-5ta cells [4]; 1 h after seeding
  cell spreading (in words): adhered and spread well

## MUPA-LDVPAAK [α4β1-specific peptidomimetic; 2-methylphenylureaphenylacetyl moiety linked to LDVP motif]
BJ-5ta cells [5]; 4 kPa and 0.7 kPa gels, versus RGD
  traction force (in words): significantly lower
BJ-5ta cells [5]; soft gel (0.7 kPa)
  lower traction force than on RGD: ~ 10 fold
Integrin α4β1 (EO state)
  Kd: 0.15 nM
BJ-5ta cells [4]; TGT 0.01 nM
  spread cells (fraction), sheet 1c: 0.05399
BJ-5ta cells [4]; TGT 0.1 nM
  spread cells (fraction), sheet 1c: 0
BJ-5ta cells [4]; TGT 0.3 nM
  spread cells (fraction), sheet 1c: 0.8785
BJ-5ta cells [4]; TGT 1 nM
  spread cells (fraction), sheet 1c: 0.9623
BJ-5ta cells [4]; TGT 10 nM
  spread cells (fraction), sheet 1c: 0.9712
BJ-5ta cells [4]; TGT 100 nM
  spread cells (fraction), sheet 1c: 0.9873
BJ-5ta cells [4]; Ttol 12pN, 1 h, mean, SE in own column, n = 3 independent experiments, given as fraction
  Spread cells on TGT, 12pN: 0.9277
BJ-5ta cells [4]; Ttol 23pN, 1 h, mean, n = 3, given as fraction
  Spread cells on TGT, 23pN: 0.9461
BJ-5ta cells [4]; Ttol 33pN, 1 h, mean, n = 3, given as fraction
  Spread cells on TGT, 33pN: 0.9711
BJ-5ta cells [4]; Ttol 43pN, 1 h, mean, n = 3, given as fraction
  Spread cells on TGT, 43pN: 0.9954
BJ-5ta cells [4]; Ttol 54pN, 1 h, mean, n = 3, given as fraction
  Spread cells on TGT, 54pN: 0.9781

## cyclic-ACRGDGWCGK (disulfide) [ACRGD-TGT]
BJ-5ta cells [6]; ACRGD-54pN (BHQ2-Cy3), 1 h
  spreading on ACRGD-54pN with blocking Fabs (in words): spread efficiently and developed elongated, irregular shapes
BJ-5ta cells [6]; blocking Fabs to αVβ1, αVβ3 and αVβ5 present
  force level required for spreading through α5β1: > 33 pN

## cyclo [Arg-Gly-Asp-D-Phe-Lys(8-amino-3,6-dioxaoctanoic acid dimer)] (head to tail) [RGD-TGT]
BJ-5ta cells [3]
  retrograde actin flow: 10.1 nm/s
BJ-5ta cells [4]; 1 h
  tension threshold for cell spreading: 33–43 pN

## proTGF-β1: physiologic macromolecular ligand with RGD motif
BJ-5ta cells [4]; 1 h after seeding
  cell morphology (in words): elongated with irregular lamellipodia
